Results taken from US20240182446A1, “TYK2 INHIBITOR COMPOUND CONTAINING BICYCLIC RING” (CHIA TAI TIANQING PHARMACEUTICAL GROUP CO., LTD., priority 2021, published 2024).
Like-named read-outs stand apart in the source and are kept apart here. Marks after values point to notes of the source that are not given here.

Experiments:
[1] = test system: STAT3 phosphorylation in Jurkat cells; experiment: Detection of STAT3 phosphorylation using Jurkat cells stimulated with IFN-α; type: cell-based; conditions: Homo sapiens, IFN-α 25 ng/mL, 30 min, compound pre-incubation 1.5 h
Experimental: 20 μL of Jurkat cells growing at log phase were taken and counted, and the required number of cells (mL) were taken and centrifuged at 1300 rpm for 3 min. Phenol red-free 1640 base medium (Hyclone) was added to adjust the cell density to about 1.7*10E7 cells/mL. The cells were seeded according to the above cell density in a 384-well plate (small-volume white plate) at 8 μL per well. The compound was added with a nanoliter pipettor, and the plate was incubated for 1.5 h. IFN-α (Beijing Sino Biological) was diluted to 75 ng/mL (with a final concentration of 25 ng/mL) with phenol red-free 1640 base medium. Subsequently, 4 μL of IFN-α (3×) was added to each well according to the plate distribution. The blank group was seeded with cells, without compound and IFN-α. The control group was seeded with cells, without compound but with IFN-α. The plate was incubated at 37° C. for 30 min. 4 μL of lysis buffer (4×) containing blocking buffer was added immediately, and the cells were lysed by shaking at room temperature for 40 min. […] pre-mixed antibody (vol/vol) in assay buffer was added and the plate was covered. The mixture was mixed well by centrifugation and incubated overnight at room temperature. Signal values at 665 nm/620 nm were detected using a PE Envision multi-functional microplate reader, and IC50 was calculated by tour-parameter fitting.

[2] = In vitro stability in liver microsomes (human); type: in vitro ADME; conditions: compound 1 μM
Experimental: (§1) 300 μL of the final incubation system contained 30 μL of liver microsomes (protein concentration: 5 mg/mL). 30 μL of NADPH+MgCl2, 3 μL of the test compound (in acetonitrile), and 237 μL of PBS buffer (pH 7.4), wherein the proportion of the organic solvent (acetonitrile) was 1% (volume ratio). Samples were prepared in duplicate of 0.30 mL for each specie. Tubes each containing 270 μL of a mixed solution of substrate and enzyme and NADPH were pre-incubated at 37° C. for 5 min. 30 μL of NADPH+MgCl2 was added and the mixture was mixed. 50 μL of the mixture was taken at 0 min, 10 min, 30 min, and 60 min, and 300 μL of glacial acetonitrile containing an internal standard was added to terminate the reaction.
(§2) 300 μL of glacial acetonitrile containing an internal standard (20 ng/mL) was added to 50 μL of the incubated sample for precipitation. The mixture was vortexed for 10 min and centrifuged (13,000 rpm, 20° C.) for 10 min. 70 μL of supernatant was taken and diluted with 70 μL of ultrapure water. After being mixed well, 0.5 μL of the resulting sample was subjected to LC/MS/MS analysis.

[3] = In vitro stability in liver microsomes (mouse); type: in vitro ADME; conditions: compound 1 μM
Experimental: as §1, §2

[4] = test system: mouse colitis model induced by anti-mouse CD40 antibody; experiment: Pharmacodynamics in mouse colitis model induced by anti-CD40 mAb antibody; type: in vivo, CB17-SCID mice; conditions: Day 7, vs model control
Experimental: SPF-grade male CB17-SCID mice (6-8 weeks old) were divided into groups on the first day of the experiment. On the first day of the experiment, the mice in the blank group were intraperitoneally injected with PBS, while the mice in the model group were intraperitoneally injected with anti-mouse CD40 antibody (100 μg, diluted with PBS as a modeling agent solution), so as to establish a mouse colitis model. The injection volume for all groups of mice was 0.1 mL.
The day of grouping was determined as Day 1, and the intragastric administration was started on the grouping day, with a volume of 2 mL/kg administered twice daily for 6 consecutive days. The vehicle for intragastric administration was: DMSO:PEG400=5:95 (volume ratio).
Animal body weights were monitored daily during the experiment. On Day 7, the end point of the experiment, all mice were euthanized and tissue samples were collected. Mice were euthanized by cervical dislocation, abdomen of the mice were cut open, and mouse spleens were collected, weighed, and photographed. The colorectum was separated from the small intestine from the end of the cecum to the anus, and the whole colorectum was removed, photographed, and then dissected longitudinally along its longitudinal axis. The intestinal contents were cleansed with a pre-cooled saline solution. The rinsed colorectum was laid flat in a large flat dish with the mucosal side thereof facing upward. Residual saline solution was removed from the […] with filter paper, and colonic tissues were taken for weighing.
The inhibition rate (%) was calculated according to the following formula: inhibition rate (%)=(M−T)/(M−C)*100% (T: treatment group; C: blank control group; M: model control group).

[5] = In vivo pharmacokinetics in mice; conditions: ICR mice, plasma; for AUC(0-t): read-out: AUC(0-10 h); for MRT last: read-out: MRT(0-t)
Experimental: ICR mice (Shanghai Institute of Planned Parenthood Research) of 6-8 weeks old, weighing 20-24 g, were randomized into groups of 9 after 3-5 days of acclimatization, and the test compounds at a dose of 15 mg/kg or 30 mg/kg were administered intragastrically to the mice.
The animals to be tested (ICR mice) were fasted for 12 h before administration and food was provided 4 h after administration, and water was freely drunk before and after the experiment and during the experiment.
After intragastrric administration, about 0.1 mL of blood was collected from the orbit at 0.25 (15 min), 0.5 (30 min), 1, 2, 4, 6, 8, and 10 h. Each mouse was subjected to blood collection at 3-4 time points, with three mice per time point. The blood samples were mixed with EDTA-K2 anticoagulant, transferred to a centrifuge within 30 min, and then centrifuged at 4000 rpm for 10 min. at 4° C. to separate the plasma. All the plasma samples were collected and immediately stored at −20° C. for testing.
400 μL of acetonitrile solution containing an internal standard (20 ng/mL) was added to 20 μL of the collected plasma sample to be tested. The mixture was shaken and mixed well for 10 min, and centrifuged at 13,000 rpm for 10 min 50 μL of supernatant was taken and diluted with 100 μL of ultrapure water. After being mixed well, 0.5 μL of the resulting sample was subjected to LC/MS/MS, and a chromatogram was recorded.
Oral exposure of the compounds disclosed herein was evaluated by in vivo pharmacokinetic experiments in mice.

[6] = In vitro stability in liver microsomes (monkey); type: in vitro ADME; conditions: compound 1 μM
Experimental: as §1, §2

[2H]C([2H])([2H])NC(=O)c1nnc(NC(=O)C2CC2)cc1Nc1cccc(-c2ncc(N3CCCC3=O)cn2)c1OC [Compound 18-h]
IC50 [1]: 5.3 nM
Human Residuals at 60 min (%) [2]: 106.77%
Mouse Residuals at 60 min (%) [3]: 94.80%

[2H]C([2H])([2H])NC(=O)c1nnc(NC(=O)C2CC2)cc1Nc1cccc(-c2ncc(-c3cccnc3C)cn2)c1OC [Compound 52-j]
IC50 [1]: 2.7 nM
Spleen coefficient Inhibition rate (%) ([4]; 15 mg/kg i.g. bid for 6 days): 101%***
Spleen weight Inhibition rate (%) ([4]; 15 mg/kg i.g. bid for 6 days): 102%***
Weight of intestinal tissue per unit length Inhibition rate (%) ([4]; 15 mg/kg i.g. bid for 6 days): 101%***

[2H]C([2H])([2H])NC(=O)c1nnc(NC(=O)C2CC2)cc1Nc1cccc(-c2ncc(-c3cccnc3)cn2)c1OC [Compound 1-j]
IC50 [1]: 4.5 nM

[2H]C([2H])([2H])NC(=O)c1nnc(NC(=O)C2CC2)cc1Nc1cccc(-c2ncc(-c3cccnc3C#N)cn2)c1OC [Compound 26-h]
IC50 [1]: 5.3 nM

[2H]C([2H])([2H])NC(=O)c1nnc(NC(=O)C2CC2)cc1Nc1cccc(-c2ncc(-c3ccnn3C)cn2)c1OC [Compound 34-h]
IC50 [1]: 5.7 nM
Human Residuals at 60 min (%) [2]: 99.75%
Mouse Residuals at 60 min (%) [3]: 92.69%
AUC(0-inf) ([5]; mouse, po, IG 15 mg/kg): 66700 ng·h/mL
Tmax ([5]; mouse, po, IG 15 mg/kg): 4 h
half-life ([5]; mouse, po, IG 15 mg/kg): 4.19 h
AUC(0-t) ([5]; mouse, po, IG 15 mg/kg): 65300 ng·h/mL
Cmax ([5]; mouse, po, IG 15 mg/kg, read-out: Cmax): 10200 ng/mL
MRT last ([5]; mouse, po, IG 15 mg/kg): 4.44 h
Spleen coefficient Inhibition rate (%) ([4]; 5 mg/kg i.g. bid for 6 days): 83%***
Spleen weight Inhibition rate (%) ([4]; 5 mg/kg i.g. bid for 6 days): 82%***
Weight of intestinal tissue per unit length Inhibition rate (%) ([4]; 5 mg/kg i.g. bid for 6 days): 70%***

[2H]C([2H])([2H])NC(=O)c1nnc(NC(=O)C2CC2)cc1Nc1cccc(-c2ncc(-c3ccc(F)nc3)cn2)c1OC [Compound 3-j]
Human Residuals at 60 min (%) [2]: 103.99%
Monkey Residuals at 60 min (%) [6]: 95.82%
Mouse Residuals at 60 min (%) [3]: 99.92%

[2H]C([2H])([2H])NC(=O)c1nnc(NC(=O)C2CC2)cc1Nc1cccc(-c2ncc(-c3cccnc3F)cn2)c1OC [Compound 5-j]
IC50 [1]: 2.9 nM
Human Residuals at 60 min (%) [2]: 107.15%
Monkey Residuals at 60 min (%) [6]: 99.31%
Mouse Residuals at 60 min (%) [3]: 99.08%
AUC(0-inf) ([5]; mouse, po, IG 30 mg/kg): 62600 ng·h/mL
Tmax ([5]; mouse, po, IG 30 mg/kg): 0.5 h
half-life ([5]; mouse, po, IG 30 mg/kg): 4.48 h
AUC(0-t) ([5]; mouse, po, IG 30 mg/kg): 60800 ng·h/mL
Cmax ([5]; mouse, po, IG 30 mg/kg, read-out: Cmax): 8100 ng/mL
MRT last ([5]; mouse, po, IG 30 mg/kg): 6.26 h

[2H]C([2H])([2H])NC(=O)c1nnc(NC(=O)C2CC2)cc1Nc1cccc(-c2ncc(-n3ccnc3C)cn2)c1OC [Compound 55-j]
IC50 [1]: 5.2 nM

[2H]C([2H])([2H])NC(=O)c1nnc(NC(=O)C2CC2)cc1Nc1cccc(-c2ncc(N3CC[C@H](O)C3)cn2)c1OC [Compound 53-j]
IC50 [1]: 5.1 nM
Mouse Residuals at 60 min (%) [3]: 94.17%

[2H]C([2H])([2H])NC(=O)c1nnc(NC(=O)C2CC2)cc1Nc1cccc(-c2ncc(N3CC(C)(C)CC3=O)cn2)c1OC [Compound 47-j]
IC50 [1]: 2.4 nM

[2H]C([2H])([2H])NC(=O)c1nnc(NC(=O)C2CC2)cc1Nc1cccc(-c2ncc(-c3cncnc3C)cn2)c1OC [Compound 54-j]
IC50 [1]: 3.4 nM
Mouse Residuals at 60 min (%) [3]: 92.35%

[2H]C([2H])([2H])NC(=O)c1nnc(NC(=O)C2CC2)cc1Nc1cccc(-c2ncc(N3CCC(C)(C)C3=O)cn2)c1OC [Compound 49-j]
IC50 [1]: 5.2 nM

[2H]C([2H])([2H])NC(=O)c1nnc(NC(=O)C2CC2)cc1Nc1cccc(-c2ncc(N3CC[C@@H](O)C3)cn2)c1OC [Compound 59-j]
IC50 [1]: 5 nM
Mouse Residuals at 60 min (%) [3]: 100.66%

[2H]C([2H])([2H])NC(=O)c1nnc(NC(=O)C2CC2)cc1Nc1cccc(-c2ncc(-c3ccc(F)nc3F)cn2)c1OC [Compound 12-j]
IC50 [1]: 4.5 nM

[2H]C([2H])([2H])NC(=O)c1cnc(NC(=O)C2CC2)cc1Nc1cccc(-c2ncc(N3CCCC3)cn2)c1OC [Compound 60-j]
IC50 [1]: 8.5 nM

[2H]C([2H])([2H])NC(=O)c1cnc(NC(=O)C2CC2)cc1Nc1cccc(-c2ncc(-c3cccnc3F)cn2)c1OC [Compound 57-j]
IC50 [1]: 4.4 nM

[2H]C([2H])([2H])NC(=O)c1nnc(NC(=O)C2CC2)cc1Nc1cccc(-c2ncc(-c3cccnc3C(F)(F)F)cn2)c1OC [Compound 6-j]
IC50 [1]: 2.4 nM
Human Residuals at 60 min (%) [2]: 100.18%
Cmax ([5]; IG 30 mg/kg): 12534 ng/mL
t1/2 ([5]; IG 30 mg/kg): 6.26 h
AUC(0-inf) ([5]; mouse, po, IG 30 mg/kg): 63600 ng·h/mL
Tmax ([5]; mouse, po, IG 30 mg/kg): 0.5 h
AUC(0-t) ([5]; mouse, po, IG 30 mg/kg): 61200 ng·h/mL
MRT last ([5]; mouse, po, IG 30 mg/kg): 4.74 h
Spleen coefficient Inhibition rate (%) ([4]; 5 mg/kg i.g. bid for 6 days): 81.78%**
Spleen weight Inhibition rate (%) ([4]; 5 mg/kg i.g. bid for 6 days): 83.38%
Weight of intestinal tissue per unit length Inhibition rate (%) ([4]; 5 mg/kg i.g. bid for 6 days): 76.21%***

[2H]C([2H])([2H])NC(=O)c1nnc(NC(=O)C2CC2)cc1Nc1cccc(-c2ncc(N3CC(O)C3)cn2)c1OC [Compound 51-j]
IC50 [1]: 7.1 nM
Mouse Residuals at 60 min (%) [3]: 96.42%

[2H]C([2H])([2H])NC(=O)c1nnc(NC(=O)C2CC2)cc1Nc1cccc(-c2ncc(N3CC[C@@H](O)C3)cn2)c1OC [Compound 44-j]
Human Residuals at 60 min (%) [2]: 98.44%
Mouse Residuals at 60 min (%) [3]: 91.31%
